From PubChem BioAssay AID977621 (Broad Institute, 2014)
Inconclusive results are not listed. Calls of active or inactive are those of the source.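 The calls were made as follows: active = Wild-type ribosome reporter drop at least double the humanized mutant ribosome reporter drop, growth loss under a set limit; inconclusive = no clear call, values can overlap the other calls; inactive = the rest.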

System: E. coli wild-type GFP strain growth, fluorescence, 24 h
Experiment: wild-type E. coli growth inhibition versus H69 humanized strain – H69 mutant RFP, wild-type GFP, cherry-pick, dose response (AID 977621);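 also: wild-type GFP and H69 mutant RFP strains grown together 50/50 in each well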
[1] = E. coli mixed culture, 24 h, measured here: total growth OD600, test 2

| SMILES | AC50 | AC50 [1] [µM] |
| --- | --- | --- |
| NS(=O)(=O)c1cc(C(=O)OCC(=O)Nc2ccccc2[N+](=O)[O-])ccc1Cl | > 100 µM (inactive) | > 100 |
| Cc1ccc(S(=O)(=O)Nc2ccc3c(c2)C(=O)N([C@H](C)CO)C[C@@H](C)[C@H](CN(C)C(=O)c2ccccc2)OCCCC[C@@H](C)O3)cc1 | – | > 100 |
| CSc1ccccc1NC(=O)c1ccccc1N(Cc1ccccc1)S(C)(=O)=O | – | > 100 |
| Cc1ccc(C(=O)OCC(=O)c2c[nH]c3ccccc23)cc1NC(=O)c1ccco1 | > 100 µM (inactive) | – |
| CCCC[n+]1ccn(-c2nc3ccccc3nc2[N-]S(=O)(=O)c2cccs2)c1 | > 100 µM (inactive) | > 100 |
| CCCN(CC1CC1)C(=O)CSc1ncnc2sccc12 | > 100 µM (inactive) | – |
| Nc1ccc(C(=O)Nc2ccc3nc(-c4ccncc4)[nH]c3c2)cc1 | > 100 µM (inactive) | – |
| CCc1cc2cc(OC)ccc2nc1SCC(=O)Nc1cc(OC)c(OC)cc1C(=O)O | – | > 100 |
| Cc1ccc(NC(=O)C2CCCN(c3ncnc4c3nc3n4CCCCC3)C2)cc1Cl (stereo unspecified) | – | > 100 |
| Cc1sc2ncnc(N3CCCC(C)C3)c2c1C (stereo unspecified) | > 100 µM (inactive) | – |
| COc1cccc(NC2=Nc3cccc4cccc2c34)c1 | – | > 100 |
| O=C(NCCc1ccccc1)c1ccc2c(c1)S(=O)(=O)c1ccccc1C2=O | > 100 µM (inactive) | 41.5 |
| COc1cc(OC)c(NS(=O)(=O)c2cccc(C(=O)OCC(=O)NCC3CCCO3)c2)cc1Cl (stereo unspecified) | – | > 100 |
| O=C1c2ccccc2S(=O)(=O)c2cc(N3CCC(C(=O)N4CCCCC4)CC3)ccc21 | > 100 µM (inactive) | – |
| Cc1ccc(CNC(=O)c2ccc(Br)o2)cc1 | > 100 µM (inactive) | – |
| O=C(CCCOc1ccccc1)NCCc1nc2ccccc2[nH]1 | > 100 µM (inactive) | – |
| COc1ccc(C(=O)NCCC2=CCCCC2)cc1[N+](=O)[O-] | – | > 100 |
| C[C@@H]1CN([C@H](C)CO)C(=O)c2cccc(NC(=O)Nc3ccc4c(c3)OCO4)c2O[C@@H]1CN(C)C(=O)Nc1ccc2c(c1)OCO2 | – | > 100 |
| C=CCn1c(CCSCc2ccc(OC)c(C)c2)n[nH]c1=S | > 100 µM (inactive) | 33.6 |
| CCOc1ccc(NC(=O)CN(C)CC(=O)Nc2ccc(Br)cc2F)cc1OCC | > 100 µM (inactive) | > 100 |
| CCc1ccc2nc(SCC(=O)Nc3ccccc3N3CCOCC3)c(C#N)cc2c1 | – | > 100 |
| O=C(COC(=O)C1CC2C=CC1C2)NCCc1ccccc1 (stereo unspecified) | – | > 100 |
| O=C(CSc1ccc(-c2cccnc2)nn1)N1CCCc2ccccc21 | > 100 µM (inactive) | > 100 |

| SMILES | AC50 | AC50 [1] [µM] |
| --- | --- | --- |
| CCOC(=O)C(C)Sc1nc(N2CCOCC2)c2c(c1C#N)CC(C)(C)OC2 (stereo unspecified) | – | > 100 |
| O=C(Cn1c2[n+](c3ccc(C(F)(F)F)cc31)CCCCC2)c1ccc2c(c1)OCCO2 | > 100 µM (inactive) | – |
| O=C(COC(=O)c1ccc([N+](=O)[O-])o1)NC12CC3CC(CC(C3)C1)C2 | > 100 µM (inactive) | > 100 |
| O=C(CSc1ccccc1)NCCCc1ccccc1 | – | > 100 |
| O=C1OCCC1Sc1nc2ccccc2c(=O)n1Cc1ccccc1 (stereo unspecified) | > 100 µM (inactive) | – |
| C[C@@H]1CN([C@@H](C)CO)C(=O)CCCn2nncc2CO[C@H]1CN(C)C(=O)Nc1ccc(C(F)(F)F)cc1 | > 100 µM (inactive) | – |
| COc1cccc(CN(C)Cc2nc(Cc3ccccc3Cl)no2)c1 | – | 51.7 |
| O=C1C(c2ccccc2)c2ccccc2N1Cc1ccccc1 (stereo unspecified) | > 100 µM (inactive) | – |
| O=C(COc1cc(F)ccc1[N+](=O)[O-])NCCCc1ccccc1 | – | > 100 |
| CS(=O)(=O)N(CC(=O)N1CCc2ccccc2C1)c1ccc(Br)cc1 | > 100 µM (inactive) | 33.1 |
| O=C(c1cc(C(=O)N2CCOCC2)c2nc3ccccc3n2c1)c1cc(Cl)cc(Cl)c1O | > 100 µM (inactive) | > 100 |
| COc1ccc(CN(CC(O)COCc2ccccc2)S(=O)(=O)c2ccccc2Br)cc1OC (stereo unspecified) | > 100 µM (inactive) | 28.5 |
| O=C(NCCCN1CCOCC1)c1sc2cc([N+](=O)[O-])ccc2c1Cl | > 100 µM (inactive) | – |
| COc1ccc(-c2cn(-c3ccc(Cl)cc3)c3[n+]2CCCCC3)cc1 | > 100 µM (inactive) | – |
| Cc1cccc(-c2ccc([C@@H]3[C@@H](CO)N4CCCCN(S(=O)(=O)c5ccccc5C)C[C@H]34)cc2)c1 | – | 48.8 |
| COc1cc(C(N)=O)cc(Br)c1OCc1ccccc1 | > 100 µM (inactive) | 35.4 |
| C=CCN(CC=C)C(=O)c1ccc2nc(Cc3ccc(OC)c(OC)c3)oc2c1 | > 100 µM (inactive) | > 100 |
| COc1ccc(NS(=O)(=O)c2ccc(NC(=O)c3ccccc3Br)cc2)nn1 | > 100 µM (inactive) | – |
| N#Cc1ccc(-c2ccc(C3[C@H]4CNC[C@@H]3N4S(=O)(=O)c3ccc(-c4ccccc4)cc3)cc2)cc1 (stereo partly specified) | – | > 100 |
| COc1ccc(-n2c(-c3ccc(C)cc3)nc3ccccc3c2=O)cc1 | > 100 µM (inactive) | – |
| COc1ccc(C(=O)Cn2nnc(-c3ccccc3F)n2)cc1 | > 100 µM (inactive) | 41.2 |
| O=C(c1cccc(F)c1)N1CCN(c2ccc([N+](=O)[O-])c3cccnc23)CC1 | > 100 µM (inactive) | > 100 |
| COc1cccc(NC(=O)C2CCC(CNS(=O)(=O)c3cccs3)CC2)c1 (stereo unspecified) | > 100 µM (inactive) | – |

| SMILES | AC50 | AC50 [1] [µM] |
| --- | --- | --- |
| COc1cccc(NC(=O)C(c2ccccc2)N2CCN(c3ccccn3)CC2)c1 (stereo unspecified) | – | > 100 |
| Cc1ccc(C)c(N2CCN(C(=O)CCS(=O)(=O)c3ccc4c(c3)oc(=O)n4C)CC2)c1 | – | > 100 |
| COc1cc(CO)cc(Br)c1OCC(=O)Nc1cccc2ccccc12 | > 100 µM (inactive) | – |
| O=S1(=O)N[C@H](Cc2ccccc2)COc2cc(N3CCSCC3)ccc21 | – | > 100 |
| COc1ccc(-c2csc(NC(=O)c3ccoc3C)n2)cc1 | > 100 µM (inactive) | 48.8 |
| CC(=O)OC(COc1cccc(C)c1)Cn1cnc2ccccc21 (stereo unspecified) | – | 48.6 |
| O=S(=O)(Cc1ccccc1)N1CCCCN2[C@@H](CO)[C@H](c3ccc(C#Cc4ccccc4)cc3)[C@@H]2C1 | > 100 µM (inactive) | – |
| CCCN(CC(=O)Nc1ccccc1C)C(=O)c1cccc(S(=O)(=O)N2CCc3ccccc3C2)c1 | > 100 µM (inactive) | 40.8 |
| O=C(c1cnc(Cc2c[nH]c3ccccc23)c(I)c1)N1CCCCC1 | – | 29.6 |
| Cc1ccc(OCC(O)CN2CCN(c3ccccn3)CC2)c(C)c1 (stereo unspecified) | > 100 µM (inactive) | 45.6 |
| O=C1NC(CCc2ccccc2)C(=O)N1Cc1cccc2ccccc12 (stereo unspecified) | – | 50 |
| O=C(Nc1ccc(F)c(Cl)c1)C1CC2CCC1C2 (stereo unspecified) | – | > 100 |
| Clc1ccccc1-c1nnc2sc(CCc3ccccc3)nn12 | > 100 µM (inactive) | 15.4 |
| Cc1nn(-c2ccccc2)c(C)c1CN(C)C(=O)c1ccc(S(=O)(=O)NCc2ccco2)cc1 | > 100 µM (inactive) | – |
| O=S1(=O)N[C@@H](Cc2ccccc2)COc2cc(N3CCC[C@H]3CO)ccc21 | > 100 µM (inactive) | – |
| CC(C)(C)c1ccc(-c2noc(CCC(=O)NCc3ccco3)n2)cc1 | – | > 100 |
| CCOC(=O)c1cc2sccc2n1CCCN1C(=O)c2ccccc2C1=O | > 100 µM (inactive) | > 100 |
| COc1ccc(C2=NN(C(=O)c3cccnc3)C(c3ccccc3)C2)cc1 (stereo unspecified) | – | 1.05 |
| CN(Cc1ccc(Cl)s1)C(=O)CNC(=O)CNC(=O)c1ccc(Cl)cc1Cl | > 100 µM (inactive) | – |
| CC(NC(=O)c1ccncc1)c1ccc(Cl)cc1Cl (stereo unspecified) | – | > 100 |
| CCC(C(=O)Nc1ccsc1C(=O)OC)c1ccccc1 (stereo unspecified) | – | 49.2 |
| O=C(C[n+]1ccn(-c2ccccc2)c1)c1ccc([N+](=O)[O-])cc1 | > 100 µM (inactive) | – |
| CN(c1ccc(C(=O)NCc2cccs2)cc1)S(=O)(=O)c1ccccc1 | – | < 0.6 |

| SMILES | AC50 | AC50 [1] [µM] |
| --- | --- | --- |
| COc1ccc(NS(=O)(=O)c2ccc(Oc3c(C#N)cccc3C#N)cc2)cc1 | > 100 µM (inactive) | 27.5 |
| O=C(Cc1ccc(NC(=O)C2CCCN(C(=O)CCc3ccccc3)C2)cc1)Nc1cccc(C(=O)N2CCCC2)c1 (stereo unspecified) | > 100 µM (inactive) | > 100 |
| COc1cc(C(=O)Nc2nnc(S(=O)(=O)N3CCCCCC3)s2)cc(OC)c1OC | > 100 µM (inactive) | 36.3 |
| O=C(NCc1nnnn1-c1ccc(Cl)cc1)c1ccc([N+](=O)[O-])o1 | > 100 µM (inactive) | – |
| Cc1csc2c(N3CCC(C(=O)O)CC3)ncnc12 | > 100 µM (inactive) | – |
| CCOc1ccccc1OCCCC(=O)N1CCN(S(=O)(=O)c2cc(F)ccc2F)CC1 | > 100 µM (inactive) | – |
| O=C(CSc1nc2ccccc2[nH]1)Nc1cccc(S(=O)(=O)N2CCOCC2)c1 | > 100 µM (inactive) | 33.9 |
| O=C(O)c1ccc(-c2noc(-c3cccc(Cl)c3)n2)cc1 | > 100 µM (inactive) | – |
| Cc1onc(-c2ccccc2Cl)c1C(=O)N[C@@H](C)c1ccccc1 | > 100 µM (inactive) | > 100 |
| O=C1Nc2ccc(F)cc2C12Nc1ccccc1-c1nnc(SCc3ccccc3)nc1O2 (stereo unspecified) | > 100 µM (inactive) | – |
| CN1CCN(C(=O)c2cc3sc4ccccc4c3s2)CC1 | > 100 µM (inactive) | – |
| CCCCNC(=O)c1onc(CSc2cc(C)cc(C)c2)c1C(=O)O | – | 34.2 |
| Cc1ccc(S(=O)(=O)Nc2cccc(-c3ccc(N4CCCCCC4)nn3)c2)cc1 | > 100 µM (inactive) | 28.9 |
| O=C1CSC(c2cccnc2)N1Cc1ccc(Cl)c(Cl)c1 (stereo unspecified) | > 100 µM (inactive) | > 100 |
| Cc1ccc(N2C(=S)NC3c4cc(Cl)ccc4OC2(C)C3C(=O)N(C)C)cc1 (stereo unspecified) | – | > 100 |
| CN(C)CCCNc1ccc(-c2cc(Nc3cccc(Cl)c3)ncn2)cn1 | > 100 µM (inactive) | > 100 |
| COc1ccc(NC(=O)CN(c2ccccc2OC)S(=O)(=O)c2cccs2)cc1Cl | – | > 100 |
| Cc1ccsc1C(=O)N1CCCC(C(=O)c2cc(F)ccc2F)C1 (stereo unspecified) | > 100 µM (inactive) | > 100 |
| S=c1[nH]nc(-c2ccc(Br)cc2)n1-c1ccc2c(c1)OCCO2 | > 100 µM (inactive) | – |
| COc1ccc(CNC(=O)Cc2cn(C)c3ccccc23)c(OC)c1 | – | > 100 |
| Cc1cc(NC(=O)CSc2nccn2-c2cccc(C)c2C)no1 | > 100 µM (inactive) | > 100 |
| COc1cccc(-c2ccc(SCc3ccccn3)nn2)c1 | > 100 µM (inactive) | 48.2 |
